# Patent publication US20240287080A1 (IDEAYA Biosciences Inc., priority 2021, published 2024)
# pIC50: −log10 of the molar value.
# Molecular target: T1, Pol theta (1-899) (Homo sapiens, UniProt O75417)
# T1 construct: Pol theta (1-899) (5 nM) in assay buffer
# Assay: Pol theta ATPase activity, NADH oxidation-coupled enzymatic assay (ATPase NADH coupling: Standard Screening: hPolQ)
# Format: biochemical
# Details: Pol theta (1-899) 5 nM, NADH oxidation-coupled ATPase assay; compounds of Table 3
# Method in brief: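 NADH-coupled ATPase readout: 5 nM Pol theta (1-899) preincubated 15 min with 10-point compound series in Tris pH 7.80, KCl, MgCl2, DTT, BSA, Tween, glycerol, then 100 μM ATP, 300 nM 50-mer poly-dT ssDNA, NADH, PEP, LDH and PK added (stock levels). A340 followed 60 min; slopes fit four-parameter for IC50.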
# T1 sequence (O75417 1-899): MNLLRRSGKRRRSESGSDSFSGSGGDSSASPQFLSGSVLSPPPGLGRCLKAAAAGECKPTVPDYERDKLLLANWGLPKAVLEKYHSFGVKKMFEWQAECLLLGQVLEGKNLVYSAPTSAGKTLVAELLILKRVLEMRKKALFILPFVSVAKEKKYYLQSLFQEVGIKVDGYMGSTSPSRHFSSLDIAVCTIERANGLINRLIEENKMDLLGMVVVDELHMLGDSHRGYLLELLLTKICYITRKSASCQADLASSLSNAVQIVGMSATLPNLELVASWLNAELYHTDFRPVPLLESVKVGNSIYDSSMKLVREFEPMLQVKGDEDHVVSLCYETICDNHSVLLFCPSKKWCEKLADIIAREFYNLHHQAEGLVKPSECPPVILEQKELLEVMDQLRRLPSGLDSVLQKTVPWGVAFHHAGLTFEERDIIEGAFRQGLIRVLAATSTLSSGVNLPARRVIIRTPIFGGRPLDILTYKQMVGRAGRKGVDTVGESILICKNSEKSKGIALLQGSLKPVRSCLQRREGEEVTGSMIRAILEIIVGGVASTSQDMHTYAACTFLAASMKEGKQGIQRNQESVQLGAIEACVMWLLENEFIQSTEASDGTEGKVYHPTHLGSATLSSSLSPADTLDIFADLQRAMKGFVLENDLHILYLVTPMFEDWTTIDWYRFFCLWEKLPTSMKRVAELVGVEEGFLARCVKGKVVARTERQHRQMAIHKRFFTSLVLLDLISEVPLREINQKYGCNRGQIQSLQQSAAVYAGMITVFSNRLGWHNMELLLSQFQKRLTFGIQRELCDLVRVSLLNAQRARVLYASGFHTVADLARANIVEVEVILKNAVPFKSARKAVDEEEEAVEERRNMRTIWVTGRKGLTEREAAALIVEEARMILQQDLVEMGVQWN
row,Structure (SMILES),pIC50
1,"COc1nnc(NC(=O)c2cnc(C)cc2-c2cnn(-c3ccccc3)c2C)s1 [Example 456, N-(5-methoxy-1,3,4-thiadiazol-2-yl)-6-methyl-4-(5-methyl-1-phenyl-1H-pyrazol-4-yl)pyridine-3-carboxamide]",5.00 to 6.00
2,"COc1nnc(NC(=O)c2cnc(C)cc2-c2cccc(OC(F)(F)F)c2)s1 [Example 408, N-(5-methoxy-1,3,4-thiadiazol-2-yl)-6-methyl-4-[3-(trifluoromethoxy)phenyl]pyridine-3-carboxamide]",6.00 to 6.30
3,"COc1nnc(NC(=O)c2cnc(C)cc2-c2cccc(C(N)=O)c2)s1 [Example 488, 4-(3-carbamoylphenyl)-N-(5-methoxy-1,3,4-thiadiazol-2-yl)-6-methylnicotinamide]",5.00 to 6.00
4,"COc1nnc(NC(=O)c2cnc(C)cc2-c2ccnc(C)c2)s1 [Example 404, N-(5-methoxy-1,3,4-thiadiazol-2-yl)-2′,6-dimethyl-[4,4′-bipyridine]-3-carboxamide]",5.00 to 6.00
5,"COc1nnc(NC(=O)c2cnc(C)cc2-c2cc(Cl)c([S+](C)[O-])cc2OC)s1 (single isomer, unassigned) [Example 298]",6.00 to 6.30
6,"COc1nnc(NC(=O)c2cnc(C)cc2-c2ccccc2C)s1 [Example 389, N-(5-methoxy-1,3,4-thiadiazol-2-yl)-6-methyl-4-(2-methylphenyl)pyridine-3-carboxamide]",6.00 to 6.30
7,"COc1nnc(NC(=O)c2cnc(C)cc2-c2cccnc2C)s1 [Example 461, N-(5-methoxy-1,3,4-thiadiazol-2-yl)-2,6′-dimethyl-[3,4′-bipyridine]-3′-carboxamide]",5.00 to 6.00
8,"COc1nnc(NC(=O)c2cnc(C)cc2-c2cccc(N3CCCCC3)c2)s1 [Example 478, N-(5-methoxy-1,3,4-thiadiazol-2-yl)-6-methyl-4-[3-(piperidin-1-yl)phenyl]pyridine-3-carboxamide]",5.00 to 6.00
9,"COc1nnc(NC(=O)c2ccnc(C#N)c2-c2cc(Cl)ncc2OC)s1 [Example 289, 2′-chloro-2-cyano-5′-methoxy-N-(5-methoxy-1,3,4-thiadiazol-2-yl)-[3,4′-bipyridine]-4-carboxamide]",5.00 to 6.00
10,"CNS(=O)(=O)c1ccc(-c2cc(C)ncc2C(=O)Nc2nnc(OC)s2)cc1 [Example 384, N-(5-methoxy-1,3,4-thiadiazol-2-yl)-6-methyl-4-[4-(methylsulfamoyl)phenyl]pyridine-3-carboxamide]",5.00 to 6.00
11,"COc1nnc(NC(=O)c2cnc(C)cc2-c2ccn(C)c(=O)c2)s1 [Example 351, N-(5-methoxy-1,3,4-thiadiazol-2-yl)-1′,6-dimethyl-2′-oxo-1′,2′-dihydro-[4,4′-bipyridine]-3-carboxamide]",5.00 to 6.00
12,"COc1nnc(NC(=O)c2cnc(C)cc2-c2cccc(-c3ccn(C)n3)c2)s1 [Example 453, N-(5-methoxy-1,3,4-thiadiazol-2-yl)-6-methyl-4-[3-(1-methyl-1H-pyrazol-3-yl)phenyl]pyridine-3-carboxamide]",5.00 to 6.00
13,"COc1nnc(NC(=O)c2cnc(C)cc2-c2cnc3[nH]ncc3c2)s1 [Example 357, N-(5-methoxy-1,3,4-thiadiazol-2-yl)-6-methyl-4-(1H-pyrazolo[3,4-b]pyridin-5-yl)nicotinamide]",5.00 to 6.00
14,"COc1nnc(NC(=O)c2cnc(C)cc2-c2ccc3occc(=O)c3c2)s1 [Example 438, N-(5-methoxy-1,3,4-thiadiazol-2-yl)-6-methyl-4-(4-oxo-4H-chromen-6-yl)nicotinamide]",5.00 to 6.00
15,"COc1ccc(-c2cc(C)ncc2C(=O)Nc2nnc(OC)s2)cn1 [Example 407, 6-methoxy-N-(5-methoxy-1,3,4-thiadiazol-2-yl)-6′-methyl-[3,4′-bipyridine]-3′-carboxamide]",5.00 to 6.00
16,"COc1nnc(NC(=O)c2cnc(C)cc2-c2cccc(CC(N)=O)c2)s1 [Example 472, 4-[3-(carbamoylmethyl)phenyl]-N-(5-methoxy-1,3,4-thiadiazol-2-yl)-6-methylpyridine-3-carboxamide]",5.00 to 6.00

# More lines, now with the values ahead:
row,pIC50,Structure (SMILES)
1,≥ 6.70,"COc1cnc(Cl)cc1-c1cc(C)ncc1C(=O)Nc1nnc(O[C@@H]2CO[C@H]3OCC[C@H]32)s1 (single isomer, unassigned) [Example 305]"
2,≥ 6.70,"COc1nnc(NC(=O)c2cc(OC)c(C)cc2-c2cc(Cl)ncc2OC)s1 [Example 301, 2-(2-chloro-5-methoxypyridin-4-yl)-5-methoxy-N-(5-methoxy-1,3,4-thiadiazol-2-yl)-4-methylbenzamide]"
3,≥ 6.70,"COc1nnc(NC(=O)c2ccc(N)cc2-c2cc(Cl)ncc2OC)s1 [Example 286, 4-amino-2-(2-chloro-5-methoxypyridin-4-yl)-N-(5-methoxy-1,3,4-thiadiazol-2-yl)benzamide]"

# Same assay, conditions: Table 4; Pol theta (1-899) 5 nM, ATP, dT50 ssDNA
row,Structure (SMILES),pIC50
1,"COc1cccc(F)c1-c1cc(C)ncc1C(=O)Nc1nnc(OCC(C)(C)C(F)(F)F)s1 [Example 4, 4-(2-fluoro-6-methoxyphenyl)-6-methyl-N-(5-(3,3,3-trifluoro-2,2-dimethylpropoxy)-1,3,4-thiadiazol-2-yl)pyridine-3-carboxamide]",6.30 to 6.70
2,"COc1cnc(Cl)cc1-c1cc(C)ncc1C(=O)Nc1nnc(OC2CCC2)s1 [Example 11, 2′-chloro-N-(5-cyclobutoxy-1,3,4-thiadiazol-2-yl)-5′-methoxy-6-methyl-(4,4′-bipyridine)-3-carboxamide]",≥ 6.70

# Further lines, results first:
row,pIC50,Structure (SMILES)
1,≥ 6.70,"COc1nnc(NC(=O)c2cnc(C)cc2-c2cc(C)ncc2Cl)s1 [Example 41, 5′-chloro-N-(5-methoxy-1,3,4-thiadiazol-2-yl)-2′,6-dimethyl-(4,4′-bipyridine)-3-carboxamide]"
2,5.00 to 6.00,"COc1nnc(NC(=O)c2cnc(C)cc2-c2cc3[nH]ncc3cc2OC)s1 [Example 67, N-(5-methoxy-1,3,4-thiadiazol-2-yl)-4-(5-methoxy-1H-indazol-6-yl)-6-methylnicotinamide]"
3,≥ 6.70,"COc1nnc(NC(=O)c2cnc(C)cc2-c2cc(Cl)ncc2OC)s1 [Example 5, 2′-chloro-5′-methoxy-N-(5-methoxy-1,3,4-thiadiazol-2-yl)-6-methyl-(4,4′-bipyridine)-3-carboxamide]"
4,≥ 6.70,"COc1cnc(Cl)cc1-c1cc(C)ncc1C(=O)Nc1nnc(OC2CCCC2)s1 [Example 17, 2′-chloro-N-(5-(cyclopentyloxy)-1,3,4-thiadiazol-2-yl)-5′-methoxy-6-methyl-(4,4′-bipyridine)-3-carboxamide]"
5,≥ 6.70,"COc1cnc(Cl)cc1-c1cc(C)ncc1C(=O)Nc1nnc(O[C@H]2CC[C@H](O)C2)s1 [Example 45, 2′-chloro-N-(5-(((1s,3s)-3-hydroxycyclopentyl)oxy)-1,3,4-thiadiazol-2-yl)-5′-methoxy-6-methyl-(4,4′-bipyridine)-3-carboxamide]"
6,≥ 6.70,"COc1cnc(Cl)cc1-c1cc(C)ncc1C(=O)Nc1nnc(OC2(C)COC2)s1 [Example 24, 2′-chloro-5′-methoxy-6-methyl-N-(5-((3-methyloxetan-3-yl)oxy)-1,3,4-thiadiazol-2-yl)-(4,4′-bipyridine)-3-carboxamide]"
7,≥ 6.70,"COc1nnc(NC(=O)c2cnc(C)cc2-c2cc(Br)ncc2OC)s1 [Example 63, 2′-bromo-5′-methoxy-N-(5-methoxy-1,3,4-thiadiazol-2-yl)-6-methyl-(4,4′-bipyridine)-3-carboxamide]"

# Same assay, conditions: Table 5; Pol theta (1-899) 5 nM, ATP, dT50 ssDNA
row,Structure (SMILES),pIC50
1,"COc1nnc(NC(=O)c2c[nH]nc2-c2cc(Cl)ncc2OC)s1 [Example 109, 3-(2-chloro-5-methoxypyridin-4-yl)-N-(5-methoxy-1,3,4-thiadiazol-2-yl)-1H-pyrazole-4-carboxamide]",5.00 to 6.00
2,"COc1nnc(NC(=O)c2cnc(C)cc2-c2ccc3nscc3c2)s1 [Example 105, 4-(benzo(c)isothiazol-5-yl)-N-(5-methoxy-1,3,4-thiadiazol-2-yl)-6-methylnicotinamide]",5.00 to 6.00

# The remaining lines, values ahead:
row,pIC50,Structure (SMILES)
1,≥ 6.70,"COc1nnc(NC(=O)c2cn3c(C)ncc3cc2-c2cc(Cl)ncc2OC)s1 [Example 103, 7-(2-chloro-5-methoxypyridin-4-yl)-N-(5-methoxy-1,3,4-thiadiazol-2-yl)-3-methylimidazo(1,5-a)pyridine-6-carboxamide]"
2,≥ 6.70,"COc1cnc(Cl)cc1-c1cc(C)ncc1C(=O)Nc1nnc(O[C@@H]2C[C@H]3CC[C@@H]2O3)s1 (single isomer, unassigned) [Example 216]"
3,≥ 6.70,"COc1cnc(Cl)cc1-c1cc(C)ncc1C(=O)Nc1nnc(O[C@H]2CO[C@H](C)C2)s1 (single isomer, unassigned) [Example 192]"
4,≥ 6.70,"COc1cnc(Cl)cc1-c1cc(C)ncc1C(=O)Nc1nnc(O[C@H]2C[C@@H]3CC[C@H]2O3)s1 (single isomer, unassigned) [Example 217]"
5,≥ 6.70,"COc1cnc(Cl)c(F)c1-c1cc(C)ncc1C(=O)Nc1nnc(O[C@@H]2COC3(CC3)C2)s1 (single isomer, unassigned) [Example 209]"
6,≥ 6.70,"COc1cnc(Br)cc1-c1cc(C)ncc1C(=O)Nc1nnc(O[C@H]2CC[C@H](O)CC2)s1 [Example 194, 2′-bromo-N-(5-(((1r,4r)-4-hydroxycyclohexyl)oxy)-1,3,4-thiadiazol-2-yl)-5′-methoxy-6-methyl-(4,4′-bipyridine)-3-carboxamide]"
7,≥ 6.70,"COCc1cc(-c2cc(Cl)ncc2OC)c(C(=O)Nc2nnc(OC)s2)cn1 [Example 158, 2′-chloro-5′-methoxy-N-(5-methoxy-1,3,4-thiadiazol-2-yl)-6-(methoxymethyl)-(4,4′-bipyridine)-3-carboxamide]"
8,≥ 6.70,"Cc1cc(-c2cc(Cl)ncc2OC(F)F)c(C(=O)Nc2nnc(O[C@H]3CC[C@H](O)CC3)s2)cn1 [Example 203, 2′-chloro-5′-(difluoromethoxy)-N-(5-(((1r,4r)-4-hydroxycyclohexyl)oxy)-1,3,4-thiadiazol-2-yl)-6-methyl-(4,4′-bipyridine)-3-carboxamide]"
